The term inhibition denotes the drop in the measured response relative to a control, in per cent.

Structures are written as SMILES. Active and inactive are the calls of the source. The rule behind the calls is not given here.

Series [1] relates to HUVEC. Nature of the series: Antiangiogenic activity in HUVEC assessed as inhibition of tube formation at 1.6 uM after 24 hrs by light microscopic analysis relative to control. Type of series: functional. The settings on record: Homo sapiens.
Series [2] concerns HUVEC. Nature of the series: Antiangiogenic activity in HUVEC assessed as inhibition of tube formation at 6.25 uM after 24 hrs by light microscopic analysis relative to control. Type of series: functional. The note with it: Homo sapiens.
For series [3], the system named is HUVEC. Nature of the series: Downregulation of VEGF level in HUVEC at 6.25 uM after 24 hrs by Western blot analysis relative to control. It counts as functional, Homo sapiens. (In general: A western blot detects proteins with antibodies after separation by electrophoresis.)
For series [4], the system named is HUVEC. In words: Downregulation of HIF-1 alpha protein level in HUVEC at 6.25 uM after 24 hrs by Western blot analysis relative to control. Type of series: functional, Homo sapiens.
Series [5] concerns SNU-182. Nature of the series: Downregulation of MMP2 mRNA levels in human SNU182 cells at 20 uM after 24 hrs by quantitative real-time qPCR analysis. It counts as functional, cell-based.
For series [6], the target named is RAC-alpha serine/threonine-protein kinase (Homo sapiens) (UniProt P31749). Nature of the series: Inhibition of Akt phosphorylation in HUVEC at 6.25 uM after 24 hrs by Western blot analysis relative to control. It counts as cell-based.
Sequence of RAC-alpha serine/threonine-protein kinase (Homo sapiens) (P31749 whole entry): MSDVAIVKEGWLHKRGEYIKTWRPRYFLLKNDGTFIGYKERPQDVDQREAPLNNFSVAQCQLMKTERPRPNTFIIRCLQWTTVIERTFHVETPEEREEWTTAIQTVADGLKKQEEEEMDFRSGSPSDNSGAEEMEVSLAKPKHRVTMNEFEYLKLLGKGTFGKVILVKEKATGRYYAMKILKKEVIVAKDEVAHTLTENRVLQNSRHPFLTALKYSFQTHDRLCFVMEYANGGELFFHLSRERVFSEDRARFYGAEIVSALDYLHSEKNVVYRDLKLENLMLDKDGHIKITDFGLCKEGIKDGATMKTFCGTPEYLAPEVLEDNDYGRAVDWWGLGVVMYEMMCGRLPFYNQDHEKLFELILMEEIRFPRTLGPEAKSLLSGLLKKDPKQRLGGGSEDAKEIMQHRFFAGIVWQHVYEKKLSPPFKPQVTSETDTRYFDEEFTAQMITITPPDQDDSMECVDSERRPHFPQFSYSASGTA
Series [7] has as its system HUVEC. Nature of the series: Antiangiogenic activity in HUVEC assessed as inhibition of tube formation at 3.125 uM after 24 hrs by light microscopic analysis relative to control. Type of series: functional. The note with it: Homo sapiens.
In series [8] the test system is SNU-182. In words: Cytotoxicity against human SNU182 cells assessed as decrease in cell viability up to 20 uM after 48 hrs by MTT assay. The settings on record: snu-182, 48 h. It counts as cell-based. Background: Tetrazolium assays rely on reduction of a dye to a coloured formazan, in cell work by metabolically active cells.
The subject of series [9] is SNU-182. Nature of the series: Downregulation of MMP9 mRNA levels in human SNU182 cells at 20 uM after 24 hrs by quantitative real-time qPCR analysis. It counts as functional, cell-based. (In general: Real-time PCR tracks product formation cycle by cycle.)
In series [10] the test system is HUVEC. In words: Cytotoxicity activity against HUVEC assessed as decrease in cell viability at 12.5 to 100 uM after 24 hrs by MTT assay. The settings on record: human. Type of series: cell-based.
Series [11] relates to HepG2. Nature of the series: Antiproliferative activity against human HepG2 cells after 24 hrs by MTT assay. It counts as functional, cell-based.
Series [12] concerns HUVEC. Nature of the series: Downregulation of HIF-1 alpha protein level in HUVEC at 3.125 uM after 24 hrs by Western blot analysis relative to control. It counts as functional, Homo sapiens.
Series [13] concerns HUVEC. Nature of the series: Cytotoxicity activity against HUVEC assessed as decrease in cell viability up to 6.25 uM after 24 hrs by MTT assay. It counts as cell-based. The settings on record: human.
The subject of series [14] is HepG2. In words: Antiproliferative activity against human HepG2 cells at 200 uM after 24 hrs by MTT assay. Type of series: functional.
Series [15] deals with RAC-alpha serine/threonine-protein kinase (Homo sapiens) (UniProt P31749). In words: Inhibition of Akt phosphorylation in HUVEC at 3.125 uM after 24 hrs by Western blot analysis relative to control. Type of series: cell-based.
Series [16] relates to HUVEC. Nature of the series: Downregulation of VEGF protein level in HUVEC at 3.125 uM after 24 hrs by Western blot analysis relative to control. It counts as functional, Homo sapiens.

As to `CC(C)=CC[C@@H](O)C1=CC(=O)c2c(O)ccc(O)c2C1=O` [SHIKONIN], in [1], the inhibition at 1.6 µM stood at 31.8%.
Take `COc1ccc(-c2cc(=O)c3c(O)c(OC)c(O)cc3o2)cc1OC` [EUPATILIN]: the inhibition at 6.25 µM in series [2] came to 24.8%. Besides, the Activity in series [3] is 31%; in [8] it was “Non-Toxic”; in series [10] it was “Toxic”; in series [11], “Dose-dependent effect”; in series [13], “Non-Toxic”; in [14] it was 43.24%. Moreover, the “fold change (FC)” value came to 0.84 in series [4]; 0.8 in [6]; 0.83 in [12]; 0.82 in series [15]; 0.88 in series [16]. Also, in series [5], the result was Active. Also, the inhibition at 3.125 µM in [7] stood at 14.1%. Also, in series [9], the result was inactive.

The values are drawn from ChEMBL document CHEMBL4265901, “Eupatilin inhibits angiogenesis-mediated human hepatocellular metastasis by reducing MMP-2 and VEGF signaling” (Bioorg Med Chem Lett, 2018).
